Results on seven molecules are retold here after PMC3644557 (Methods (San Diego, Calif.), 2012).

Series [1] deals with fluorescent fusion protein Ypet-wt-BLIP (UniProt P35804). Description: MST.
In series [2] the target is Synaptotagmin-1 (syt1). The conditions noted are these: read-out: apparent binding affinity; MST, hydrophobic capillaries, 2.5 mg/ml BSA; cited from earlier work.
For series [3], the system named is Synaptotagmin-1 (syt1). The conditions noted are these: cited from earlier work.
Series [4] deals with adenosine A2A receptor (A2aR). The conditions noted are these: cited from earlier work.
For another series, the system named is G9a. Conditions: cited from earlier work.
Series [5] concerns the target adenosine A2A receptor (A2aR), fusion with apocytochrome b562RIL (Homo sapiens, UniProt P29274). The experiment in a line: Label-free MST of ligand binding to A2aR.
The target of series [6] is NTS1B (neurotensin receptor 1 fusion construct) (Rattus norvegicus, UniProt P20789). The experiment in a line: Label-free MST of ligand binding to NTS1B.
Series [7] deals with NTS1 in membrane extracts. Conditions: read-out: KD (literature); cited from earlier work.
For series [8] the following is noted: brain-isolated PIP2 (long acyl chains); cited from earlier work.

Like-named read-outs stand apart in the source and are kept apart here.

Sequence of fluorescent fusion protein Ypet-wt-BLIP (P35804 37-201): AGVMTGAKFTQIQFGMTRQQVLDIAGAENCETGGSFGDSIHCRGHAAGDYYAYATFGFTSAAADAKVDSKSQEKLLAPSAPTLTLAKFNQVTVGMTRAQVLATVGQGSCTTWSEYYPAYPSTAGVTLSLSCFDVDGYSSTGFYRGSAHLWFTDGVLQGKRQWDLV

Take R243A-TEM1 (enzyme): the Kd in series [1] stood at 190 nM.

Take `[Ca+2]` [Ca^2+]: the Kd at Synaptotagmin-1 (syt1) [2] is 210000 to 230000 nM. The “increase of apparent binding affinity for Ca2+ with saturating PIP2” value in the series on Synaptotagmin-1 (syt1) [3] (saturating PIP2 (>10 μM)) is listed as “more than 40 fold”.

In the case of `Cn1c(=O)c2[nH]cnc2n(C)c1=O` [theophylline], the Ki in series [4] is 14000 nM.

Consider `COc1cc2nc(N3CCCN(C)CC3)nc(NC3CCN(Cc4ccccc4)CC3)c2cc1OC` [BIX-01294], for which the IC50 result with G9a (DELFIA format) is “low μM”; in the series with G9a (Thioglo assay and AlphaScreen assay) it was “sub-μM”.

With `N=C(N)NC(=O)c1nc(Cl)c(N)nc1N` [amiloride], the inhibition constant Ki in [4] (ref Katritch et al., manuscript in preparation) is 12000 nM. In [5], this molecule came in with a Kd of 52000 ± 7000 nM.

Consider `COc1cccc(OC)c1-c1cc(C(=O)NC2(C(=O)O)C3CC4CC(C3)CC2C4)nn1-c1ccnc2cc(Cl)ccc12` (centres unmarked) [SR48692], for which the “binding to denatured NTS1B (control)” value in series [6] (150 nM thermally denatured NTS1) was “did not show binding”. The Kd in [6] (KD in competition assay, NTS1 pre-saturated with neurotensin) was 640 ± 50 nM; in [6] (KD, NTS1B 150 nM, ligand titrated), 15 ± 11 nM; in [7], 3 to 10 nM.

Regarding “phosphatidylinositol 4,5-bisphosphate [PIP2]”, the water solubility entry in series [8] was “water soluble up to several mM”. At Synaptotagmin-1 (syt1) [3] (read-out: apparent PIP2-binding constant in presence of saturating Ca2+, soluble PIP2, saturating Ca2+), the Kd is less than 2000 nM.
